Assay results taken from patent publication US7649008B2, “Crystal of benzimidazole derivative and process for producing the same” (priority 2003, dated 2010).
Entries after “also recorded” stand apart in the source; their conditions may differ.

Columns and labels:
[1] = Storage stability of the crystal forms; format: physicochemical; conditions: qualitative
[2] = Relative stability of the crystal forms; format: physicochemical; conditions: four kinds of crystals excluding the solvate
[3] = Solubility of the crystal forms in the solvent; format: physicochemical; conditions: qualitative, solvent not given
[4] = Absorptivity of the crystal forms; conditions: qualitative

| SMILES | storage stability [1] | absorptivity [4] | solubility in the solvent ([3]; hydrate) | stability (rank order of crystal forms) [2] | solubility in the solvent [3] |
| --- | --- | --- | --- | --- | --- |
| Cc1cccc2scc(Cn3c(SCCCC(=O)O)nc4ccccc43)c12 [crystal A, 4-(1-((4-methylbenzothiophen-3-yl)methyl)benzimidazol-2-ylthio)butanoic acid] | excellent | comparatively excellent |  | becomes lower in the order of crystal D, crystal B, crystal A and crystal E | becomes higher in this order; also recorded: excellent |
| Cc1cccc2scc(Cn3c(SCCCC(=O)O)nc4ccccc43)c12 [crystal B, 4-(1-((4-methylbenzothiophen-3-yl)methyl)benzimidazol-2-ylthio)butanoic acid] | excellent |  |  | becomes lower in the order of crystal D, crystal B, crystal A and crystal E | becomes higher in this order |
| Cc1cccc2scc(Cn3c(SCCCC(=O)O)nc4ccccc43)c12 [crystal D, 4-(1-((4-methylbenzothiophen-3-yl)methyl)benzimidazol-2-ylthio)butanoic acid] | excellent |  |  | becomes lower in the order of crystal D, crystal B, crystal A and crystal E | becomes higher in this order; also recorded: drastically poor |

More lines, main results first:

| storage stability [1] | absorptivity [4] | solubility in the solvent ([3]; hydrate) | SMILES | stability (rank order of crystal forms) [2] | solubility in the solvent [3] |
| --- | --- | --- | --- | --- | --- |
| excellent | comparatively excellent |  | Cc1cccc2scc(Cn3c(SCCCC(=O)O)nc4ccccc43)c12 [crystal E, 4-(1-((4-methylbenzothiophen-3-yl)methyl)benzimidazol-2-ylthio)butanoic acid] | becomes lower in the order of crystal D, crystal B, crystal A and crystal E | becomes higher in this order; also recorded: excellent |
| excellent | comparatively excellent | excellent | Cc1cccc2scc(Cn3c(SCCCC(=O)O)nc4ccccc43)c12 [hydrate crystal, 4-(1-((4-methylbenzothiophen-3-yl)methyl)benzimidazol-2-ylthio)butanoic acid hydrate] |  |  |
